These results are taken from patent US5834521A, “Substituted dibenz (A F)azulenes and methods of preparation” (Ortho Pharmaceutical Corporation, priority 1996, dated 1998).

This assay deals with T1, Progestin Receptor (Oryctolagus cuniculus, UniProt P06186).
T1 construct: The high speed supernatant fraction was used as the receptor preparation; from tissue; host or cells: uterus of New Zealand rabbits, 200,000×g supernatant (cytosol)
T1 sequence (P06186 1-930): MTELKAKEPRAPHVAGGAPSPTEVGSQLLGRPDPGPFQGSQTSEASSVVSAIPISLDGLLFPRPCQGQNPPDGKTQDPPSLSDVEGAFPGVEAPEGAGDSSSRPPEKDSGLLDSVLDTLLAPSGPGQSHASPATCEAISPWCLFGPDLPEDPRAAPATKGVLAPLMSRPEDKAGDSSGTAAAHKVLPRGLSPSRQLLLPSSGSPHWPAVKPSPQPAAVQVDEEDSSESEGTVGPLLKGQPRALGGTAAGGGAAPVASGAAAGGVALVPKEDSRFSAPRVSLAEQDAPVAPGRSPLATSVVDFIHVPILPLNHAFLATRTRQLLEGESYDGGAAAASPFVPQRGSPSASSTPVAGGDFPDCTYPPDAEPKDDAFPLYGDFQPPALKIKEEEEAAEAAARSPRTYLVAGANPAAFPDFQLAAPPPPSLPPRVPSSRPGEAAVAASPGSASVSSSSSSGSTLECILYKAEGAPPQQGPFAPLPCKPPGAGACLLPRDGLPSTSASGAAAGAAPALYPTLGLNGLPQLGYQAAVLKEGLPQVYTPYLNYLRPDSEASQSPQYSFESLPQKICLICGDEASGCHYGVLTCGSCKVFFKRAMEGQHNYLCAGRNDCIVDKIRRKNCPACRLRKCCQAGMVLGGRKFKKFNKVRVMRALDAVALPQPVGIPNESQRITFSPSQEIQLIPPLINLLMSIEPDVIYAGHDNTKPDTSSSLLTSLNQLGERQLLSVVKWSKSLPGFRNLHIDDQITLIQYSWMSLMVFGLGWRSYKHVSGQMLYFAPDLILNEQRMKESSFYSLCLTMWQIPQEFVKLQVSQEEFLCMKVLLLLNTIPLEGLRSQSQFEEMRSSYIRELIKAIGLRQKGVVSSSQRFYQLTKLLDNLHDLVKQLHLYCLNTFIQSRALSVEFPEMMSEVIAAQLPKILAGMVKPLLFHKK
Briefly: Progestin Receptor Binding (competitive binding, 3H-promegestone, rabbit uterus receptor preparation). Set-up: species or system New Zealand rabbits. The conditions noted are these: 3H-promegestone displacement, 4° C., 18 h. On the procedure: Progestin Receptor Binding
The procedure used was essentially that of J. L. McGuire, C.
Uteri from New Zealand rabbits (1.5 to 2.5 kg) were placed in a cold buffer A (0.01 mol Tris-HCl, pH 8.0, 0.001 mol EDTA, 0.25 mol sucrose). The uteri were minced, washed and homogenized in cold buffer A. The homogenate (2 g wet tissue/mL buffer) was centrifuged at 200,000×g for 1 h at 4° C. The high speed supernatant fraction was used as the receptor preparation.
A competitive binding assay was performed by mixing 3H-promegestone with the receptor preparation and adding a known amount of unlabeled compound. This mixture was incubated at 4° C. for 18 h. The compounds bound to the receptor were separated from those which were free in solution using dextran coated charcoal and the amount of isotope bound to the receptor was determined by scintillation counting. The extent of the compound's interaction with the receptor is measured as the percent reduction in the total isotope bound caused by the unlabeled test compound as compared to the control levels. The receptor screen consists of measuring the reduction in the total isotope bound caused by the unlabeled test compound at […] final concentrations.
“4b,5,6,11,11a,12-Hexahydro-7-methoxy-6,11a-dimethyldibenz-[a,f]azulene [Compound 109]” gave an IC50 of 1250 nM. In other words, the single-digit micromolar range.

The compound “6,11,11a,12-Tetrahydro-8-carboxy-9-methoxy-6,11a-dimethyldibenz[a,f]azulene [Compound 80]” showed an IC50 of 10000 nM.

Take `COc1ccc2c(c1)C[C@@]1(C)Cc3ccccc3C1=C[C@H]2C` (relative stereo) [Compound 3]: the IC50 was found to be 40 nM.

For `COc1ccc2c(c1)C[C@@]1(C)Cc3ccccc3[C@H]1C[C@H]2C` (relative stereo) [Compound 8], the half-inhibitory concentration (IC50) was determined as 476 nM.

`COc1ccc2c(c1)C[C@@]1(C)Cc3ccccc3[C@H]1[C@H](O)[C@H]2C` (relative stereo) [Compound 13, 6,11a-Dimethyl-5-hydroxy-9-methoxy-4b,5,6,11,11a,12-hexahydrodibenz[a,f]azulene (α--OH)] gave an IC50 of 337 nM. This IC50 and that of the compound before are within 1.5-fold of each other.

Take `COc1ccc2c(c1)C[C@@]1(C)Cc3ccccc3[C@@H]1C[C@H]2C` (relative stereo) [Compound 16]: the 50% inhibitory concentration (IC50) was 353 nM.

As for `CC[C@]12Cc3ccccc3C1=C[C@@H](C)c1ccc(OC)cc1C2` (relative stereo) [Compound 17], the 50% inhibitory concentration (IC50) amounted to 160 nM.

Compound `CC[C@]12Cc3cc(OC)ccc3C1=C[C@@H](C)c1ccc(OC)cc1C2` (relative stereo) [Compound 22] returned a half-inhibitory concentration (IC50) of 421 nM. This IC50 lies about 2.6-fold higher than the previous one.

In turn, `COc1cc2c(cc1C(C)=O)[C@H](C)C=C1c3ccccc3C[C@]1(C)C2` (relative stereo) [Compound 44] displayed an IC50 of 190 nM. Compared with the last compound, the IC50 is about 2.2-fold lower.

In turn, `COc1ccc2c(c1)C[C@@]1(C)Cc3cc(F)ccc3[C@H]1C[C@H]2C` (relative stereo) [Compound 47] displayed a 50% inhibitory concentration (IC50) of 25 nM.

Regarding `COc1cccc2c1[C@H](C)C[C@@H]1c3ccccc3C[C@]1(C)C2` (relative stereo) [Compound 54], the IC50 came to 118 nM.

With `COc1ccc2c(c1)C[C@@]1(C)Cc3ccccc3C1[C@@H](O)[C@H]2C` (relative stereo) [Compound 64, 6,11a-Dimethyl-5-hydroxy-9-methoxy-4b,5,6,11,11a,12-hexahydrodibenz[a,f]azulene (β-OH)], the IC50 stood at 1680 nM.

The compound `CCC[C@@]12Cc3cc(OC)ccc3CC[C@@H]1c1ccc(OC)cc1C2` (relative stereo) [Compound 71] had an IC50 of 439 nM. Against the preceding compound, the IC50 is about 3.8-fold lower.

`CCC[C@@]12Cc3cc(OC)ccc3CC[C@@H]1c1ccc(F)cc1C2` (relative stereo) [Compound 72] had a 50% inhibitory concentration (IC50) of 100 nM.

`CCC[C@]12Cc3cc(F)ccc3[C@H]1CCc1c(cccc1OC)C2` (relative stereo) [Compound 73] registered a 50% inhibitory concentration (IC50) of 100 nM.

As to `CCC[C@]12Cc3ccccc3C1=C[C@@H](C)c1ccc(NC(C)=O)cc1C2` (relative stereo) [Compound 84], the half-maximal inhibitory concentration (IC50) was 161 nM.

`COc1cc2c(c(OC)c1)[C@H](C)C[C@@H]1c3ccccc3C[C@]1(C)C2` (relative stereo) [Compound 86]: the IC50 was found to be 1670 nM.

For `CC(=O)Oc1cc2c(c(OC(C)=O)c1)[C@H](C)C[C@@H]1c3ccccc3C[C@]1(C)C2` (relative stereo) [Compound 87], the concentration for half-maximal inhibition (IC50) worked out at 729 nM. This IC50 is about 2.3-fold lower than that of the compound before.

Consider `CCC[C@]12Cc3ccccc3C1=C[C@@H](C)c1ccc(Br)cc1C2` (relative stereo) [Compound 92], for which the IC50 was 139 nM.

Compound `CCC[C@]12Cc3ccccc3C1=C[C@@H](C)c1ccc(I)cc1C2` (relative stereo) [Compound 99] showed an IC50 of 90 nM.

The compound `COc1cccc2c1CC=C1c3ccccc3CC1(C)C2` (stereo not shown) [Compound 1, 7-Methoxy-11a-methyl-6,11,11a,12-tetrahydrodibenz[a,f]azulene] showed a concentration for half-maximal inhibition (IC50) of 143 nM.

`COc1ccc2c(c1)CC1(C)Cc3ccccc3C1=CC2` (stereo not shown) [Compound 2, 9-Methoxy-11a-methyl-6,11,11a,12-tetrahydrodibenz[a,f]azulene] came in with a concentration for half-maximal inhibition (IC50) of 239 nM. Compared with the last compound, the IC50 is about 1.7-fold higher.

`C[C@@H]1CC2c3ccccc3C[C@]2(C)Cc2cc(O)ccc21` (stereo partly shown) [Compound 12] showed an IC50 of 456 nM. Against the preceding compound, the IC50 is about 1.9-fold higher.

As to `COc1ccc2c(c1)CC1(C)Cc3ccccc3C1C(=O)C2C` (stereo not shown) [Compound 14, 6,11a-Dimethyl-9-methoxy-5-oxo-4b,5,6,11,11a,12-hexahydrodibenz[a,f]azulene], the half-maximal inhibitory concentration (IC50) is 212 nM.

On to `COc1ccc2c(c1)CC1(C)Cc3cc(OC)ccc3C1C(O)C2C` (stereo not shown) [Compound 19], for which the half-maximal inhibitory concentration (IC50) came out at 668 nM.

As to `CC[C@]12Cc3ccccc3C1C[C@@H](C)c1ccc(OC)cc1C2` (stereo partly shown) [Compound 23], the IC50 turned out to be 419 nM.

In the case of `CC1c2cc([N+](=O)[O-])c(O)cc2CC2(C)Cc3ccccc3C2C1O` (stereo not shown) [Compound 24, 6,11a-Dimethyl-5,9-dihydroxy-8-nitro-4b,5,6,11,11a,12-hexahydrodibenz[a,f]azulene], the IC50 was 258 nM.

`COc1cc2c(cc1[N+](=O)[O-])C(C)C(O)C1c3ccccc3CC1(C)C2` (stereo not shown) [Compound 25, 6,11a-Dimethyl-5-hydroxy-9-methoxy-8-nitro-4b,5,6,11,11a,12-hexahydrodibenz[a,f]azulene] gave a half-inhibitory concentration (IC50) of 121 nM.

Compound `CC1CC2c3ccccc3CC2(C)Cc2ccccc21` (stereo not shown) [Compound 28, 6,11a,-Dimethyl-4b,5,6,11,11a,12-hexahydrodibenz[a,f]azulene] had an IC50 of 32 nM.

For the compound `CCCC12Cc3ccccc3C1=CCc1c(cccc1OC)C2` (stereo not shown) [Compound 29], the IC50 was found to be 15 nM. This IC50 is about 2.1-fold lower than that of the compound before.

In turn, `COc1ccc2c(c1)CC1(C)Cc3cc(OC)ccc3C1=CC2` (stereo not shown) [Compound 34, 6,11,11a,12-Tetrahydro-2,9-dimethoxy-11a-methyl-dibenz[a,f]azulene] showed an IC50 of 425 nM.

`CCCC12Cc3cc(OC)ccc3CCC1c1ccccc1C2` (stereo not shown) [Compound 35]: the half-maximal inhibitory concentration (IC50) amounted to 133 nM.

Consider `CCC12Cc3cc(OC)ccc3CC=C1c1ccc(OC)cc1C2` (stereo not shown) [Compound 37], for which the IC50 is 2600 nM.

In turn, `CCCC12Cc3cc(O)ccc3CCC1c1ccccc1C2` (stereo not shown) [Compound 40] showed a half-maximal inhibitory concentration (IC50) of 51 nM.

`CC[C@]12Cc3ccccc3C1C[C@@H](C)c1ccc(O)cc1C2` (stereo partly shown) [Compound 46] registered an IC50 of 65 nM.

Take `CCCC12Cc3cc(OC)ccc3C(C)CC1c1ccccc1C2` (stereo not shown) [Compound 48]: the IC50 was determined as 182 nM.

Consider `CCOP(=O)(OCC)Oc1ccc2c(c1)CC1(C)Cc3cc(F)ccc3C1CC2C` (stereo not shown) [Compound 49, 9-(2-Fluoro-6,11,11a,12-tetrahydro-6,11a-dimethyl)-dibenz[a,f]azulenyl diethyl phosphoric acid], for which the half-maximal inhibitory concentration (IC50) stood at 72 nM.

`CCCC12Cc3cc(OC(C)=O)ccc3CCC1c1ccccc1C2` (stereo not shown) [Compound 50] returned an IC50 of 42 nM.

`CC1CC2c3ccccc3CC2(C)Cc2cc(OCCN(C)C)ccc21` (stereo not shown) [Compound 51] returned a half-maximal inhibitory concentration (IC50) of 410 nM.

Compound `CCC12Cc3ccccc3C1=CCc1c(cccc1OC)C2` (stereo not shown) [Compound 52] showed a half-inhibitory concentration (IC50) of 68 nM.

In the case of `CC1CC2c3ccc(F)cc3CC2(C)Cc2cc(OCCN(C)C)ccc21` (stereo not shown) [Compound 55, 6,11a-Dimethyl-9-(N,N'-dimethylamino)ethoxy-2-fluoro-4b,5,6,11,11a,12-hexahydro-6,11a-dimethyldibenz[a,f]-azulene], the IC50 was 541 nM.

Compound `CCCC12Cc3cc(F)ccc3C1=CCc1c(cccc1OC)C2` (stereo not shown) [Compound 56] registered a half-maximal inhibitory concentration (IC50) of 34 nM.

`CCCC12Cc3cc(OC)ccc3CC=C1c1ccc(F)cc1C2` (stereo not shown) [Compound 57] showed an IC50 of 67 nM. Against the preceding compound, the IC50 is about 2-fold higher.

In turn, `COc1cc2c(cc1C(C)=O)C(C)CC1c3ccccc3CC1(C)C2` (stereo not shown) [Compound 61, 8-Acetyl-4b,5,6,11,11a,12-hexahydro-6,11a-dimethyl-9-methoxydibenz[a,f]azulene] showed a half-maximal inhibitory concentration (IC50) of 365 nM.

Turning to `COc1cc2c(cc1[N+](=O)[O-])C(C)CC1c3ccc(F)cc3CC1(C)C2` (stereo not shown) [Compound 65, 6,11a-Dimethyl-2-fluoro-8-nitro-9-methoxy-4b,5,6,11,11a,12-hexahydrodibenz[a,f]azulene 1/4 Hydrate], the half-inhibitory concentration (IC50) came to 9 nM. Compared with the last compound, the IC50 is about 41-fold lower.

Turning to `CCCCC12Cc3cc(OC)ccc3CC=C1c1ccccc1C2` (stereo not shown) [Compound 67], the IC50 was determined as 185 nM.
